Legend:
Format in all cases: binding
[1] = target: T1, SW480 colon carcinoma cells lysate proteins (Homo sapiens, UniProt O00154); settings: PreyGene ACOT7
T1 sequence (O00154 1-380): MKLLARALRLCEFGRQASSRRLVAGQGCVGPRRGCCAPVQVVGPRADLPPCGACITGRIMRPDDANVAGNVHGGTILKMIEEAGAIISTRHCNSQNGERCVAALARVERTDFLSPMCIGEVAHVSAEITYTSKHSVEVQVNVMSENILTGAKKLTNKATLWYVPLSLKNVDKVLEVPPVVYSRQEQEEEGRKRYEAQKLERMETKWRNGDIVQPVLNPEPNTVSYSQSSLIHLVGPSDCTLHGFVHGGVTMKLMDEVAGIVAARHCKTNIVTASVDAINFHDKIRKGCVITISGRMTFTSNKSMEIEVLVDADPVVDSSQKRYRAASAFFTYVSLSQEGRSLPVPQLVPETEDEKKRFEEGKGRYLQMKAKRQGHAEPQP

[2] = target: SW480 colon carcinoma cells lysate proteins (Homo sapiens, UniProt P28070); settings: PreyGene PSMB4
[3] = target: SW480 colon carcinoma cells lysate proteins (Homo sapiens, UniProt Q13561); settings: PreyGene DCTN2
[4] = target: SW480 colon carcinoma cells lysate proteins (Homo sapiens, UniProt Q14974); settings: PreyGene KPNB1
[5] = target: SW480 colon carcinoma cells lysate proteins (Homo sapiens, UniProt P83731); settings: PreyGene RPL24; SW480 cells
[6] = target: T2, SW480 colon carcinoma cells lysate proteins (Homo sapiens, UniProt P02533); settings: PreyGene KRT14
T2 sequence (P02533 1-472): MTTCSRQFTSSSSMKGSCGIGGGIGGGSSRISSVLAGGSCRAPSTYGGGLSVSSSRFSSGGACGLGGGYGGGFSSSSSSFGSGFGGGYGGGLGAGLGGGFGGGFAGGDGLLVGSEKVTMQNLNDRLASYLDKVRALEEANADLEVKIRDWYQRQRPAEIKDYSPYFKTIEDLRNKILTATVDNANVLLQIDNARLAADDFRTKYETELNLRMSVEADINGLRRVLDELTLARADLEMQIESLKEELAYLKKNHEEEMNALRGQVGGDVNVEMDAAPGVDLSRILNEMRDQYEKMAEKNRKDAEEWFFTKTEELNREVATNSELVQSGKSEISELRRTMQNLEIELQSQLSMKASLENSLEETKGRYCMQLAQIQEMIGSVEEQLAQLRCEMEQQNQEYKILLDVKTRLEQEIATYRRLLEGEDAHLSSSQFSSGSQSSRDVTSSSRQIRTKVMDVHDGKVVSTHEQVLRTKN

[7] = target: T3, SW480 colon carcinoma cells lysate proteins (Homo sapiens, UniProt Q7KZF4); settings: PreyGene SND1
T3 sequence (Q7KZF4 1-910): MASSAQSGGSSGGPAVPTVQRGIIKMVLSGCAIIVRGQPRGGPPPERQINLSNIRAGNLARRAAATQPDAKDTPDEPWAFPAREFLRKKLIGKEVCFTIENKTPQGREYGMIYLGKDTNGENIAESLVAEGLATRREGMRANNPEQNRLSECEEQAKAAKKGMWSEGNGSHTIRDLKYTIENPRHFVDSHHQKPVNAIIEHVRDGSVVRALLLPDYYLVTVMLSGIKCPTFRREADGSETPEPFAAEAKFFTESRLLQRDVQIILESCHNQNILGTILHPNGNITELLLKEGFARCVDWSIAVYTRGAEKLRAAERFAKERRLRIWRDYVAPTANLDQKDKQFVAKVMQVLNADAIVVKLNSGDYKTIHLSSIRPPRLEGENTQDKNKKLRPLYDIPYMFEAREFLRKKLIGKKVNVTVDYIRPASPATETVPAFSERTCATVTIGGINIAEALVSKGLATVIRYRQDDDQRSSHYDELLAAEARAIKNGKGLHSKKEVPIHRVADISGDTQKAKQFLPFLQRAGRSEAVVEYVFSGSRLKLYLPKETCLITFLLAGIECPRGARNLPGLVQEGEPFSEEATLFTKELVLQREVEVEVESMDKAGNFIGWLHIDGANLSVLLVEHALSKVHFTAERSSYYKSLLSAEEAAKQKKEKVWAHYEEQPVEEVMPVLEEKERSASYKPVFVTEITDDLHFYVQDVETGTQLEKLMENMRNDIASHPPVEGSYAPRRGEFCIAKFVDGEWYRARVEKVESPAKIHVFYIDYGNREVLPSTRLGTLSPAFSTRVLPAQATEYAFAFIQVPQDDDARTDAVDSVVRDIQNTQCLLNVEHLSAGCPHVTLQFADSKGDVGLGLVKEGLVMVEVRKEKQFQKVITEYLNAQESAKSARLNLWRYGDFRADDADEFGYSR

SW480 colon carcinoma cells lysate proteins (Homo sapiens, UniProt Q13561), sequence (Q13561 whole entry): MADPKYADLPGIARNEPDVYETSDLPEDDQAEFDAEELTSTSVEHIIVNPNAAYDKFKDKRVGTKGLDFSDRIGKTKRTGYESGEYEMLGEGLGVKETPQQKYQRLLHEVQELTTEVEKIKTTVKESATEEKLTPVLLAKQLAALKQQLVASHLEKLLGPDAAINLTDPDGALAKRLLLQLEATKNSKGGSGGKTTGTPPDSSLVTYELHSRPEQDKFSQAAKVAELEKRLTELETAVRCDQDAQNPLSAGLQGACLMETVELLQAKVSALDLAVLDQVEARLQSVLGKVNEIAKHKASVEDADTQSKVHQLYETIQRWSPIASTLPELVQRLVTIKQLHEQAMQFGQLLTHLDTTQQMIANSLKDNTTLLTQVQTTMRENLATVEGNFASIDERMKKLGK
SW480 colon carcinoma cells lysate proteins (Homo sapiens, UniProt Q14974), sequence (Q14974 whole entry): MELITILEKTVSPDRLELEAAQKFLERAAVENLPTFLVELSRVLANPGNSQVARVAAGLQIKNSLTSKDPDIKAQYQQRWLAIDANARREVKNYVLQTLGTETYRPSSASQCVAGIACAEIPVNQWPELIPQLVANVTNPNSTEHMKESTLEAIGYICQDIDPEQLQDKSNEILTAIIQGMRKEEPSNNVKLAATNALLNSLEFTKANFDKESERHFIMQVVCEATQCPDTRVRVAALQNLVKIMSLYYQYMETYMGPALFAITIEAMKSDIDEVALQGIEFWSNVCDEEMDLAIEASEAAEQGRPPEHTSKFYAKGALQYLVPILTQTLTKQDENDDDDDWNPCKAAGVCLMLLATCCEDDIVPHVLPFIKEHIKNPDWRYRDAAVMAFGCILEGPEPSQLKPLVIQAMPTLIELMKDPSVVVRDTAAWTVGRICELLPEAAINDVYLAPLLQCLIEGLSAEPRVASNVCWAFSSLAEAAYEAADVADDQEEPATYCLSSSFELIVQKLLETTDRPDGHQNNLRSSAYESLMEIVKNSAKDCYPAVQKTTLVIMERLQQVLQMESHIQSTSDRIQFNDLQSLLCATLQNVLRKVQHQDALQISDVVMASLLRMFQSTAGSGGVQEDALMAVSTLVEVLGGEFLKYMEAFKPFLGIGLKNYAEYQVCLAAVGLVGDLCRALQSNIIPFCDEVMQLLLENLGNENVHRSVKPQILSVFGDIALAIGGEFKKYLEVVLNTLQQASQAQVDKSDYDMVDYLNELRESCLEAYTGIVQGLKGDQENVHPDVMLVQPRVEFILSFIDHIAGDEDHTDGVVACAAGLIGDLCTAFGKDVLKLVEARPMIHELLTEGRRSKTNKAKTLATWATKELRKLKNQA
SW480 colon carcinoma cells lysate proteins (Homo sapiens, UniProt P28070), sequence (P28070 46-264): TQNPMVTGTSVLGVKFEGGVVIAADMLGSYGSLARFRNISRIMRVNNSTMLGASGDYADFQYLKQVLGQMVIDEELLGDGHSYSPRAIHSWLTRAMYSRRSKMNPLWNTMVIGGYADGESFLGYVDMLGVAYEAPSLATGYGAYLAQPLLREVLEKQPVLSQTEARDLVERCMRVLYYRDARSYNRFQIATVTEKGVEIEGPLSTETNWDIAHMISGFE

C[C@H](Oc1cc(-c2cnn(C3CCNCC3)c2)cnc1N)c1c(Cl)ccc(F)c1Cl [(5)-crizotinib]
AvgP [1]: 0.2785 | SC.Exp. 1-1 [1]: 1 | SC.Exp. 1-2 [1]: 2 | SC.Exp. 2-1 [1]: 0 | SC.Exp. 2-2 [1]: 0 | Sum (SC.Exp.) [1]: 3 | AvgP [2]: 0.1875 | SC.Exp. 1-1 [2]: 2 | SC.Exp. 1-2 [2]: 0 | SC.Exp. 2-1 [2]: 0 | SC.Exp. 2-2 [2]: 0 | Sum (SC.Exp.) [2]: 2 | AvgP [3]: 0.2964 | SC.Exp. 1-1 [3]: 2 | SC.Exp. 1-2 [3]: 3 | SC.Exp. 2-1 [3]: 0 | SC.Exp. 2-2 [3]: 0 | Sum (SC.Exp.) [3]: 5 | AvgP [4]: 0.5773 | SC.Exp. 1-1 [4]: 7 | SC.Exp. 1-2 [4]: 6 | SC.Exp. 2-1 [4]: 1 | SC.Exp. 2-2 [4]: 0 | Sum (SC.Exp.) [4]: 14 | AvgP [5]: 0 | SC.Exp. 1-1 [5]: 4 | SC.Exp. 1-2 [5]: 4 | SC.Exp. 2-1 [5]: 3 | SC.Exp. 2-2 [5]: 4 | SC.Exp. Sum [5]: 15 | AvgP [6]: 0.4038 | SC.Exp. 1-1 [6]: 4 | SC.Exp. 1-2 [6]: 2 | SC.Exp. 2-1 [6]: 0 | SC.Exp. 2-2 [6]: 0 | Sum (SC.Exp.) [6]: 6 | AvgP [7]: 0.3957 | SC.Exp. 1-1 [7]: 3 | SC.Exp. 1-2 [7]: 5 | SC.Exp. 2-1 [7]: 0 | SC.Exp. 2-2 [7]: 0 | Sum (SC.Exp.) [7]: 8

From patent US9446039B2, “Aminoheteroaryl compounds as MTH1 inhibitors” (CEMM—FORSCHUNGSZENTRUM FÜR MOLEKULARE MEDIZIN GMBH, priority 2012, dated 2016)
